Converted amounts (≈) assume the structure as drawn.
Key:
[1] = Volume of distribution at steady state in cynomolgus monkey at 0.25 mg/kg, iv or 0.5 mg/kg, po; assay type: ADME, organism-based, Macaca fascicularis; conditions: in vivo, read-out: Vdss
[2] = target: T1, Tyrosine-protein kinase JAK3 (Homo sapiens, UniProt P52333)
T1 sequence (P52333 whole entry): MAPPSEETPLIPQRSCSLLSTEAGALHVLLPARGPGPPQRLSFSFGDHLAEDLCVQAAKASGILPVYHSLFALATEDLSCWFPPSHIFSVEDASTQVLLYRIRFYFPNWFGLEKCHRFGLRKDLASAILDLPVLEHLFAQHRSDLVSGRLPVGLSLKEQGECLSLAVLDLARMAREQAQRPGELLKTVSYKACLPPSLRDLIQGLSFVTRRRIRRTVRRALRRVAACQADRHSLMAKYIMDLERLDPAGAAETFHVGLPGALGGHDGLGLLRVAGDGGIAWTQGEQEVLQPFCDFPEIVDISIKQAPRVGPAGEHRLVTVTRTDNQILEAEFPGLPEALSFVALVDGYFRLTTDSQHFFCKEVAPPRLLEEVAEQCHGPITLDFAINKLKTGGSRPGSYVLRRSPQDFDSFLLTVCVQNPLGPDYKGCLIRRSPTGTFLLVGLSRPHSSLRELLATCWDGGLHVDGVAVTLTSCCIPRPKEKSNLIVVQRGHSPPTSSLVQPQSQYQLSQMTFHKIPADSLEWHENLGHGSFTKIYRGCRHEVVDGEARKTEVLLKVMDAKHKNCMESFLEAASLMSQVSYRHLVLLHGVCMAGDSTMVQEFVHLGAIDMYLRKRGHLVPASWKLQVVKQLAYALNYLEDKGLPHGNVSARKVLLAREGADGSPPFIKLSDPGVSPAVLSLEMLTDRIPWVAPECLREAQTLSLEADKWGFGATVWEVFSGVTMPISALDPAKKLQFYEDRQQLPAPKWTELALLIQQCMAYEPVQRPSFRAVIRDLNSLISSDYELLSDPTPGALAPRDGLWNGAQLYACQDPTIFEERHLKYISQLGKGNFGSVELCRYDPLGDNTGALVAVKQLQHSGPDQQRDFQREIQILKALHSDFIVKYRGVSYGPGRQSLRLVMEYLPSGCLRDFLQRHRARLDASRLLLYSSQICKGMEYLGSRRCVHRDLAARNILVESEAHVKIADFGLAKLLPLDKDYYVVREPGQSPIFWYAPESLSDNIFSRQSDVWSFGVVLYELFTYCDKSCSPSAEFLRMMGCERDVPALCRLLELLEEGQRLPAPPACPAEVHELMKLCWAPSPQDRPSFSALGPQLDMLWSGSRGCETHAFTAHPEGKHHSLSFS

[3] = Plasma clearance in cynomolgus monkey at 0.25 mg/kg, iv or 0.5 mg/kg, po; assay type: ADME, organism-based, Macaca fascicularis
[4] = target: Non-receptor tyrosine-protein kinase TYK2 (Homo sapiens, UniProt P29597)
[5] = target: T2, Tyrosine-protein kinase JAK1 (Homo sapiens, UniProt P23458)
[6] = Plasma clearance in rat at 0.5 mg/kg, iv or 1 mg/kg, po; assay type: ADME, organism-based
[7] = Intrinsic clearance in human hepatocytes after 120 mins by LC-MS/MS analysis; assay type: ADME, cell-based, Hepatocyte; conditions: read-out: CLH
[8] = Oral bioavailability in cynomolgus monkey at 0.5 mg/kg; assay type: ADME, organism-based, Macaca fascicularis; conditions: in vivo
[9] = Volume of distribution at steady state in rat at 0.5 mg/kg, iv or 1 mg/kg, po; assay type: ADME, organism-based; conditions: in vivo, read-out: Vdss
[10] = Oral bioavailability in dog at 0.5 mg/kg; assay type: ADME, organism-based, Canis lupus familiaris; conditions: in vivo
[11] = Half life in dog at 0.25 mg/kg, iv or 0.5 mg/kg, po; assay type: ADME, organism-based, Canis lupus familiaris; conditions: in vivo
[12] = Plasma clearance in dog at 0.25 mg/kg, iv or 0.5 mg/kg, po; assay type: ADME, organism-based, Canis lupus familiaris
[13] = Protein binding in cynomolgus monkey plasma; assay type: ADME, cell-free, Macaca fascicularis; conditions: read-out: PPB (converted)
Rattus norvegicus [14] = test: Unbound clearance in rat at 0.5 mg/kg, iv or 1 mg/kg, po; assay type: ADME, organism-based; conditions: in vivo
[15] = Intrinsic clearance in cynomolgus monkey hepatocytes after 120 mins by LC-MS/MS analysis; assay type: ADME, cell-based, Macaca fascicularis, Hepatocyte; conditions: read-out: CLH
[16] = Protein binding in rat plasma; assay type: ADME, cell-free; conditions: read-out: PPB (converted)
[17] = target: T2, Tyrosine-protein kinase JAK1; remark: listed apart in the source
[18] = Volume of distribution at steady state in dog at 0.25 mg/kg, iv or 0.5 mg/kg, po; assay type: ADME, organism-based, Canis lupus familiaris; conditions: in vivo, read-out: Vdss
[19] = Lipophilicity, log D of the compound at 100 uM at pH 7 by HPLC/DAD analysis; assay type: physicochemical; conditions: buffer
[20] = Oral bioavailability in rat at 1 mg/kg; assay type: ADME, organism-based; conditions: in vivo
[21] = Half life in cynomolgus monkey at 0.25 mg/kg, iv or 0.5 mg/kg, po; assay type: ADME, organism-based, Macaca fascicularis; conditions: in vivo
Rattus norvegicus [22] = test: Antiinflammatory activity in po dosed Lewis rat type 2 bovine collagen-induced arthritis model assessed as inhibition of paw swelling administered as bid on day 17; assay type: functional, organism-based
[23] = Intrinsic clearance in dog hepatocytes after 120 mins by LC-MS/MS analysis; assay type: ADME, cell-based, Canis lupus familiaris, Hepatocyte; conditions: read-out: CLH
[24] = Intrinsic clearance in rat hepatocytes after 120 mins by LC-MS/MS analysis; assay type: ADME, cell-based, Hepatocyte; conditions: read-out: CLH
[25] = target: T3, Tyrosine-protein kinase JAK2 (Homo sapiens, UniProt O60674)
[26] = Half life in rat at 0.5 mg/kg, iv or 1 mg/kg, po; assay type: ADME, organism-based; conditions: in vivo
[27] = target: T2, Tyrosine-protein kinase JAK1; test: Inhibition of JAK1 in human whole blood assessed as decrease in cytokine-stimulated STAT phosphorylation preincubated for 20 mins followed by cytokine addition measured after 30 mins
Cynomolgus monkey = test: Unbound clearance in cynomolgus monkey at 0.25 mg/kg, iv or 0.5 mg/kg, po; assay type: ADME, organism-based, Macaca fascicularis; conditions: in vivo
Homo sapiens = species on record: Homo sapiens; test: Selectivity ratio of IC50 for GST-tagged recombinant human JAK2 catalytic domain to IC50 for GST-tagged recombinant human JAK1 catalytic domain
[28] = target: T4, Voltage-gated inwardly rectifying potassium channel KCNH2 (Homo sapiens, UniProt Q12809)
[29] = target: T4, Voltage-gated inwardly rectifying potassium channel KCNH2; test: Inhibition of human ERG expressed in HEK293 cells by patch clamp method; assay type: cell-based
[30] = Protein binding in dog plasma; assay type: ADME, cell-free, Canis lupus familiaris; conditions: read-out: PPB (converted)
[31] = Solubility of the compound in FaSSIF solution at 100 uM after overnight incubation by UPLC/DAD analysis; assay type: physicochemical
[32] = target: T3, Tyrosine-protein kinase JAK2; remark: listed apart in the source
Canis familiaris = test: Unbound clearance in dog at 0.25 mg/kg, iv or 0.5 mg/kg, po; assay type: ADME, organism-based, Canis lupus familiaris; conditions: in vivo
[33] = Apparent permeability of the compound by cell-based assay; assay type: physicochemical; conditions: not told

Chain of Non-receptor tyrosine-protein kinase TYK2 (P29597 whole entry): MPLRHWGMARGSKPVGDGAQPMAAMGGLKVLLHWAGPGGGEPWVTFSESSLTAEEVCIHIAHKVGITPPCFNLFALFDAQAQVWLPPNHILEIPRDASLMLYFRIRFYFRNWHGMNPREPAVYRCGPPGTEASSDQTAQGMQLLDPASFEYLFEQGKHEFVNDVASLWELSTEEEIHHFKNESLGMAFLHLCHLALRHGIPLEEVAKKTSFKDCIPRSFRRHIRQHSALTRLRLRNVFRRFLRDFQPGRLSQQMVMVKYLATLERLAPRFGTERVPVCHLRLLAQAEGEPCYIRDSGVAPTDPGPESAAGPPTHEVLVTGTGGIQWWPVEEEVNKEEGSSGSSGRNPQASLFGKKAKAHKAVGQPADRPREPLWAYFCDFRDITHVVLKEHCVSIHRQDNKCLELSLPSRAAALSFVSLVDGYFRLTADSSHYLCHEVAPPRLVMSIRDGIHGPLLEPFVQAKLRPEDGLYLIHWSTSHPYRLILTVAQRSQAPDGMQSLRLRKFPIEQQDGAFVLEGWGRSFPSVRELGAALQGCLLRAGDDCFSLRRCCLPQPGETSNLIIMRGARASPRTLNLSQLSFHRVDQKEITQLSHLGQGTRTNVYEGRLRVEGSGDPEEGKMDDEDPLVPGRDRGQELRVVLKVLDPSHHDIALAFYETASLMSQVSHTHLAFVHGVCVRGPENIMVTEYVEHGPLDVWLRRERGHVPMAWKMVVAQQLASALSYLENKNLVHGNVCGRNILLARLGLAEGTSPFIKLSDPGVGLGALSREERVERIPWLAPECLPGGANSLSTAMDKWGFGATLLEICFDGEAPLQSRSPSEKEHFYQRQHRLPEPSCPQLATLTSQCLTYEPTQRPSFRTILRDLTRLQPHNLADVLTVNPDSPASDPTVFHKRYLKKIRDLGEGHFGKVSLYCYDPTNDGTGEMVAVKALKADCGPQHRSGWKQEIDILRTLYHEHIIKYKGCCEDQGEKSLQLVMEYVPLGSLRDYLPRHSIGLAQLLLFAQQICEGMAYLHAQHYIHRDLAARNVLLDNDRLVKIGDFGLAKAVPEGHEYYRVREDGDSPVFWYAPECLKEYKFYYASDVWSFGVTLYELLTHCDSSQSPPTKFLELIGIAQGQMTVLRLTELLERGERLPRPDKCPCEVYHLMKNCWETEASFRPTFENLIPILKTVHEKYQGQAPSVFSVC
T2 sequence (P23458 whole entry): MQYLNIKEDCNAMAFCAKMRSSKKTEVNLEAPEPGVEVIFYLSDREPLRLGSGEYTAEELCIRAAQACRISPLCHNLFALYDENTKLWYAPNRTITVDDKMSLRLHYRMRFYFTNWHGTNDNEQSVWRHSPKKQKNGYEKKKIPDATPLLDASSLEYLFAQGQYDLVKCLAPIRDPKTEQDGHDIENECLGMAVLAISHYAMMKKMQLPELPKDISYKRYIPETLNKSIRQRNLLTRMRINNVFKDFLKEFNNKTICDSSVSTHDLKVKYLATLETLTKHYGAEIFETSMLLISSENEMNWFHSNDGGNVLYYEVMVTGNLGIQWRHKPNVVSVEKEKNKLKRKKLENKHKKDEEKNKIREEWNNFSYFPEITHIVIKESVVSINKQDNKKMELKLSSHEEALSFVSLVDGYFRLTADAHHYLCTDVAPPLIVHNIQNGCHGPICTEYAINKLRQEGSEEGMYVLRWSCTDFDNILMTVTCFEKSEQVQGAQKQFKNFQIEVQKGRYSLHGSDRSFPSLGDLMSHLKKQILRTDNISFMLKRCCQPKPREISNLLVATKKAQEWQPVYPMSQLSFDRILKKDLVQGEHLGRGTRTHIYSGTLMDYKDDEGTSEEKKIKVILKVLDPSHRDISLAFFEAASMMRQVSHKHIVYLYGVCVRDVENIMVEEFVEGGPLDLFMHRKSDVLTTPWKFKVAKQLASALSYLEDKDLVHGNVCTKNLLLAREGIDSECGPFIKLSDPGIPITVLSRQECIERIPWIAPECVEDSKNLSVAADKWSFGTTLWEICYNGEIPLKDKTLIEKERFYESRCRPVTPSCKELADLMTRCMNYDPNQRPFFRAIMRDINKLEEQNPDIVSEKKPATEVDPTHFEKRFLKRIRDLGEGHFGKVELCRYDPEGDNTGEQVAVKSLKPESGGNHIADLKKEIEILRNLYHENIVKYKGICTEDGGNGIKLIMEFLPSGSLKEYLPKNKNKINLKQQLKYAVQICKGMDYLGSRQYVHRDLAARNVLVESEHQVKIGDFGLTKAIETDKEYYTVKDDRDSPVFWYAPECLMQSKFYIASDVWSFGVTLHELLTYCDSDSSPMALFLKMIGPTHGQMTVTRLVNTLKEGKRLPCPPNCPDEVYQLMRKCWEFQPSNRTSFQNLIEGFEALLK
T4 sequence (Q12809 whole entry): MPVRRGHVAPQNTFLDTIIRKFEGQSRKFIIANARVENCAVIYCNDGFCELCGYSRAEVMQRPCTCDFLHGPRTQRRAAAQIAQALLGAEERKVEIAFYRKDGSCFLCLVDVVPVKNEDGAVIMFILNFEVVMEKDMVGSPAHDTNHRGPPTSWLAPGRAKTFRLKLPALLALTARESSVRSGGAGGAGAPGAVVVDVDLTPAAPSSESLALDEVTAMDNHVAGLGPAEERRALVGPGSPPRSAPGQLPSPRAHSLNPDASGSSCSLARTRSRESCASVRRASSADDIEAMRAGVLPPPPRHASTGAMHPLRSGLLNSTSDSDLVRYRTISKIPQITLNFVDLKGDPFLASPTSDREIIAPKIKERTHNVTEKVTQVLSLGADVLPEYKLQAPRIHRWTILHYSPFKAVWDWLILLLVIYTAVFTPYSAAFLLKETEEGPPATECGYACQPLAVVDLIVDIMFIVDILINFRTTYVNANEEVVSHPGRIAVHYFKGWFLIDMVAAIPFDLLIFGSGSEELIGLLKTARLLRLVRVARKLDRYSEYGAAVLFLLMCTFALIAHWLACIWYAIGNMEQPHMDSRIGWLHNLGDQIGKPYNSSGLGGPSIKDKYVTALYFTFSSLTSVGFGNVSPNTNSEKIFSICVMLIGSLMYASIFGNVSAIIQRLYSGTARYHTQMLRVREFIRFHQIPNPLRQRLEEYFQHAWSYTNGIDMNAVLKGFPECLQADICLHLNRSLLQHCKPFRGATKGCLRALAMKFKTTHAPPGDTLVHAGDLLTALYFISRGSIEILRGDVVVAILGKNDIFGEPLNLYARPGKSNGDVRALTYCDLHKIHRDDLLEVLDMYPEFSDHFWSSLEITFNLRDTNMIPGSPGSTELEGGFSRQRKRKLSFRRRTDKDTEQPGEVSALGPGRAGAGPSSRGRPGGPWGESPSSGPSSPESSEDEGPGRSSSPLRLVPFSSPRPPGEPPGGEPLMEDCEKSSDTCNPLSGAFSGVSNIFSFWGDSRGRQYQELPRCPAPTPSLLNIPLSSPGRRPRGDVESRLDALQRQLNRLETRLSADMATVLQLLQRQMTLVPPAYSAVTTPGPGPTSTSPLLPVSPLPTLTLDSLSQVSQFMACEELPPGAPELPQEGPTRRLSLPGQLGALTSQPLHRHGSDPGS
T3 sequence (O60674 whole entry): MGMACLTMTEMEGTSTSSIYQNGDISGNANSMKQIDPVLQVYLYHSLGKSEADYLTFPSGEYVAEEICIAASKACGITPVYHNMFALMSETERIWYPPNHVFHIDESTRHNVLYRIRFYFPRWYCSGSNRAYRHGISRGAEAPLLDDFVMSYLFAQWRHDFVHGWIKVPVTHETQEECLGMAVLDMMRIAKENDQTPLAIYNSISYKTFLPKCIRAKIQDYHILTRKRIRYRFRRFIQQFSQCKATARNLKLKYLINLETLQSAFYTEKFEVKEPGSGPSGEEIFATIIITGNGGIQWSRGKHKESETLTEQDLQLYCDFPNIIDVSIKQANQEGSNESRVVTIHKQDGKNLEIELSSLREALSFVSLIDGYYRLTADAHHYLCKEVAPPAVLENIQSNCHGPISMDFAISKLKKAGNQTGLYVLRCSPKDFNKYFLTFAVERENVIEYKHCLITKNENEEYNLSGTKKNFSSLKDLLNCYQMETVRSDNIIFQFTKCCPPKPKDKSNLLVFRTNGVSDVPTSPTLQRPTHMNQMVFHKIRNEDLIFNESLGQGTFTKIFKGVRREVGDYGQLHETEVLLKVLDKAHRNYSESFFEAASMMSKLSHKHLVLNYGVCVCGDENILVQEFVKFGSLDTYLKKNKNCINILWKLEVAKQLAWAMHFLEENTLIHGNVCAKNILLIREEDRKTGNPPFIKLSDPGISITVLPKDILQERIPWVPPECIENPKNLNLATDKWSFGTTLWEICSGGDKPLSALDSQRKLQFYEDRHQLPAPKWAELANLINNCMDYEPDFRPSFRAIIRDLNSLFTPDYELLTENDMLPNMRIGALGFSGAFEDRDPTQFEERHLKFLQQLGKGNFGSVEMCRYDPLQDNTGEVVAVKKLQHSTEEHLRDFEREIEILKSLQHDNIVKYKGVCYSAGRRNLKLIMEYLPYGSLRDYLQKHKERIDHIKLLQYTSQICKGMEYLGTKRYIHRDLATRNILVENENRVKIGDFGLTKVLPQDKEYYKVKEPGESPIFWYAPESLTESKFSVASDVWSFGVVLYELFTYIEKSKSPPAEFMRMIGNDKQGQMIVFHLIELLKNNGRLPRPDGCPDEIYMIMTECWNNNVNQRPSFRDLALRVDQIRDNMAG

| Vd [1] [L/kg] | IC50 [2] [µM] | clearance [3] [mL/min/kg] | IC50 [4] [µM] | IC50 [5] [µM] | clearance [6] [mL/min/kg] | CLint scaled [7] [mL/min/kg] | bioavailability [8] [%] | Vd [9] [L/kg] | bioavailability [10] [%] | half-life [11] [h] | clearance [12] [mL/min/kg] | fraction unbound [13] | CL free (Rattus norvegicus [14]) [mL/min/kg] | CLint scaled [15] [mL/min/kg] | IC50 [17] [µM] | Vd [18] [L/kg] | logD at 100 µM [19] | bioavailability [20] [%] | CLint scaled [24] [mL/min/kg] | SMILES | further results |
| --- | --- | --- | --- | --- | --- | --- | --- | --- | --- | --- | --- | --- | --- | --- | --- | --- | --- | --- | --- | --- | --- |
| 2.8 | 0.397 | 19 | 0.012 | 0.013 | 21 | 6 | 32 | 2.7 | 29 | 1.1 | 14 | 0.033 | 350 | 36 | 0.0001 | 1.2 | 2.34 | 47 | 35 | COc1cc(Nc2nn([C@H]3COCC[C@@H]3C#N)cc2C(N)=O)ccc1Cl | fraction unbound [16]: 0.06; half-life [21]: 2.8 h; inhibition (Rattus norvegicus [22]): Dose-dependent effect; CLint scaled [23]: 122 mL/min/kg; IC50 [25]: 0.32 µM; half-life [26]: 1.6 h; IC50 [27]: 1.76 µM; CL free (Cynomolgus monkey): 581 mL/min/kg; Ratio IC50 (Homo sapiens): 39 |
|  | 1.23 |  | 0.013 | 0.064 | 41 | 26 |  | 11 | 42 |  | 21 |  |  |  | 0.0015 | 8 | 2.15 | 16 | 109 | CN(C)[C@H]1CC[C@H](n2cc(C(N)=O)c(Nc3ccc(Cl)cc3)n2)[C@@H](C#N)C1 | IC50 [28]: 12.2 µM; IC50 [29]: 3 µM |
| 1 | 0.23 | 2.4 | 0.0012 | 0.013 | 19 | 3 | 18 | 2.6 | 51 | 2.6 | 12 | 0.21 | 100 | 6 | 0.00015 | 2.7 | 1.77 | 47 | 6 | N#Cc1ccc(Nc2nn([C@H]3COCC[C@@H]3C#N)cc2C(N)=O)cc1 | fraction unbound [30]: 0.18; solubility at 100 µM [31]: 130 µM (≈ 43.7 µg/mL); IC50 [32]: 0.0012 µM; IC50 [28]: 40 µM; fraction unbound [16]: 0.19; half-life [21]: 5.6 h; inhibition (Rattus norvegicus [22]): Dose-dependent effect; CLint scaled [23]: 20 mL/min/kg; CL free (Canis familiaris): 67 mL/min/kg; IC50 [25]: 0.089 µM; half-life [26]: 1.4 h; IC50 [27]: 0.22 µM; CL free (Cynomolgus monkey): 12 mL/min/kg; Ratio IC50 (Homo sapiens): 8 |
|  |  |  |  |  |  |  |  |  |  |  |  |  |  |  |  |  | 1.54 | 0 |  | N#C[C@H]1C[C@@H](N2CCC2)CC[C@@H]1n1cc(C(N)=O)c(Nc2ccc([C@H](O)C(F)(F)F)cc2)n1 | Papp [33]: 3.3 ×10⁻⁶ cm/s |
